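Five concentrations, 48 hours, 96-well plates. The concentration for 50% growth inhibition is given as GI50.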 Activity calls are given as the source filed them. Cut-off read from the data, not from the text of the source: active = GI50 up to about 1.1 µM and inactive = higher.
Assays:
Assay in all cases: growth of human tumour cells (NCI), 48 h
A549 = system: A549
MCF7 = system: MCF7
OVCAR-8 = system: OVCAR-8
SR = system: SR
OVCAR-4 = system: OVCAR-4
KM12 = system: KM12
IGROV-1 = system: IGROV-1
OVCAR-3 = system: OVCAR-3
NCI/ADR-RES = system: NCI/ADR-RES
786-0 = system: 786-0
CCRF-CEM = system: CCRF-CEM
SF-268 = system: SF-268
BT-549 = system: BT-549
SW-620 = system: SW-620
UACC-62 = system: UACC-62
DU-145 = system: DU-145
HL-60 = system: HL-60
RPMI-8226 = system: RPMI-8226
HCC 2998 = system: HCC 2998
LOX IMVI = system: LOX IMVI

Structure (SMILES) | GI50 (A549) | GI50 (MCF7) | GI50 (OVCAR-8) | GI50 (SR) | GI50 (OVCAR-4) | GI50 (KM12) | GI50 (IGROV-1) | GI50 (OVCAR-3) | GI50 (NCI/ADR-RES) | GI50 (786-0) | GI50 (CCRF-CEM) | GI50 (SF-268) | GI50 (BT-549) | GI50 (SW-620) | GI50 (UACC-62) | GI50 (DU-145) | GI50 (HL-60) | GI50 (RPMI-8226) | GI50 (HCC 2998) | GI50 (LOX IMVI)
Cc1sc(N)c(S(=O)(=O)c2ccccc2)c1C | > 100 µM (inactive) | > 100 µM (inactive) | > 100 µM (inactive) | > 100 µM (inactive) | > 100 µM (inactive) | > 100 µM (inactive) | > 100 µM (inactive) | 80.5 µM (inactive) | > 100 µM (inactive) | > 100 µM (inactive) | > 100 µM (inactive) | > 100 µM (inactive) | > 100 µM (inactive) | > 100 µM (inactive) | > 100 µM (inactive) | > 100 µM (inactive) | > 100 µM (inactive) | > 100 µM (inactive) | > 100 µM (inactive) | 
C/C(=N\NC(=S)N1CCN(c2ccccn2)CC1)c1cccc(C)n1 | 3.48 µM (inactive) | < 0.01 µM (active) |  | 1.44 µM (inactive) |  | 3.1 µM (inactive) | < 0.01 µM (active) | < 0.01 µM (active) | < 0.01 µM (active) | 1.9 µM (inactive) | < 0.01 µM (active) | 1.51 µM (inactive) | 5.26 µM (inactive) | < 0.01 µM (active) | 2.23 µM (inactive) | 2.85 µM (inactive) | 0.0115 µM (active) | < 0.01 µM (active) | 11.9 µM (inactive) | 2.15 µM (inactive)
COC(=O)c1c(-c2ccccc2)c2sc3ccccc3n2c1N | 29.6 µM (inactive) | 34.8 µM (inactive) | 58.3 µM (inactive) | 76.2 µM (inactive) | 56.5 µM (inactive) | 26.1 µM (inactive) | 58.6 µM (inactive) | 48.9 µM (inactive) | > 100 µM (inactive) | 29.3 µM (inactive) | 52.4 µM (inactive) | 44 µM (inactive) | > 100 µM (inactive) |  | > 100 µM (inactive) | 57.5 µM (inactive) |  | > 100 µM (inactive) | 31.5 µM (inactive) | 17.3 µM (inactive)
COc1ccc(-n2cnn3c(=O)c4cn[nH]c4nc23)cc1 | > 10 µM (inactive) | > 10 µM (inactive) | > 10 µM (inactive) | > 10 µM (inactive) | > 10 µM (inactive) | > 10 µM (inactive) |  | > 10 µM (inactive) |  | > 10 µM (inactive) | > 10 µM (inactive) | > 10 µM (inactive) | > 10 µM (inactive) |  |  | > 10 µM (inactive) | > 10 µM (inactive) |  | > 10 µM (inactive) | > 10 µM (inactive)
COc1cc(N/N=C/C#N)cc(OC)c1OC | > 10 µM (inactive) | 5.87 µM (inactive) | > 10 µM (inactive) | 2.96 µM (inactive) | > 10 µM (inactive) | > 10 µM (inactive) | > 10 µM (inactive) | > 10 µM (inactive) | > 10 µM (inactive) |  | 3.28 µM (inactive) | > 10 µM (inactive) |  | 8.28 µM (inactive) | > 10 µM (inactive) | > 10 µM (inactive) | 2.12 µM (inactive) | 2.16 µM (inactive) | > 10 µM (inactive) | 1.54 µM (inactive)
COc1ccc2c(c1)CCc1cc(OC)ccc1/[N+]([O-])=[N+]\2[O-] | 26.4 µM (inactive) | 9.29 µM (inactive) | 10.4 µM (inactive) | 3.28 µM (inactive) |  | 20.2 µM (inactive) | 12.1 µM (inactive) | 16.6 µM (inactive) | 24.9 µM (inactive) | 6.27 µM (inactive) | 1.92 µM (inactive) | 16.7 µM (inactive) | 14.8 µM (inactive) | 7.1 µM (inactive) | 15.8 µM (inactive) | 18.1 µM (inactive) | 6.11 µM (inactive) | 4.86 µM (inactive) | 30.1 µM (inactive) | 15 µM (inactive)
CC1(C)CCC2(C(=O)O)C(O)CC3(C)C(=CCC4C5(C)CCC(OC6OCC(O)C(O)C6OC6OCC(O)C(O)C6OC6OCC(O)C(OC7OC(CO)C(O)C(O)C7O)C6O)C(C)(C)C5CCC43C)C2C1 (stereo not given) | 33.7 µM (inactive) | > 100 µM (inactive) | > 100 µM (inactive) | 4.21 µM (inactive) | 28.5 µM (inactive) | 21.7 µM (inactive) | > 100 µM (inactive) | > 100 µM (inactive) | > 100 µM (inactive) | > 100 µM (inactive) | 31 µM (inactive) | 21.8 µM (inactive) | 29.7 µM (inactive) | 39 µM (inactive) | 31.7 µM (inactive) | > 100 µM (inactive) | 24.7 µM (inactive) |  | 40.8 µM (inactive) | 47.5 µM (inactive)
COC(=O)C1=C(C(=O)OC)C(N(C)C)C(C(=O)OC)=C(C(=O)OC)S1 | > 100 µM (inactive) | > 100 µM (inactive) | > 100 µM (inactive) | > 100 µM (inactive) | > 100 µM (inactive) | > 100 µM (inactive) |  | > 100 µM (inactive) | > 100 µM (inactive) | > 100 µM (inactive) |  | > 100 µM (inactive) | > 100 µM (inactive) | > 100 µM (inactive) | > 100 µM (inactive) | > 100 µM (inactive) |  | > 100 µM (inactive) | > 100 µM (inactive) | > 100 µM (inactive)
Cc1ccc(S(=O)(=O)N/N=C/c2c(O)ccc3ccccc23)cc1 | 34 µM (inactive) | 25.5 µM (inactive) | 30.4 µM (inactive) |  | 28.8 µM (inactive) | 18.9 µM (inactive) | 6.68 µM (inactive) | 19.9 µM (inactive) | 27.7 µM (inactive) | 30.1 µM (inactive) | 36.7 µM (inactive) | 31.8 µM (inactive) | 23.8 µM (inactive) | 30.3 µM (inactive) | 18.2 µM (inactive) | 29 µM (inactive) | 43.4 µM (inactive) | 26.7 µM (inactive) | 21.4 µM (inactive) | 32.1 µM (inactive)
N#Cc1cc2c(cc1C#N)/C(=N\c1cccc(N)n1)N/C2=N\c1cccc(N)n1 | 40.8 µM (inactive) | 18.6 µM (inactive) | 23.6 µM (inactive) | 4.85 µM (inactive) |  | 36.8 µM (inactive) | 20.7 µM (inactive) | 29.5 µM (inactive) | 19.2 µM (inactive) | 12.9 µM (inactive) | 4.74 µM (inactive) | 15.1 µM (inactive) | 32.2 µM (inactive) | 11.4 µM (inactive) | 15.2 µM (inactive) | > 100 µM (inactive) | 19.1 µM (inactive) | 32.7 µM (inactive) | 20.5 µM (inactive) | 18.8 µM (inactive)
Nc1nc(N)c2c(Cl)c(CNc3ccc(Cl)c(Cl)c3)ccc2n1 | < 0.01 µM (active) |  | < 0.01 µM (active) | < 0.0371 µM (active) | 0.871 µM (active) | 0.0238 µM (active) | < 0.01 µM (active) | 0.168 µM (active) | < 0.01 µM (active) | < 0.01 µM (active) | < 0.01 µM (active) | 0.0116 µM (active) | 4.49 µM (inactive) | < 0.01 µM (active) | < 0.01 µM (active) | 0.15 µM (active) | < 0.01 µM (active) | 0.181 µM (active) | 0.0146 µM (active) | < 0.01 µM (active)
Cc1ccc2c3c4c(ccc13)C(C)(C)OC4=C(C(C)C)C2=O | 55.5 µM (inactive) | 44.7 µM (inactive) | 44.7 µM (inactive) |  | 65.5 µM (inactive) | 54.3 µM (inactive) | 55.3 µM (inactive) | 13.8 µM (inactive) | 19.5 µM (inactive) | 66.7 µM (inactive) | 48.4 µM (inactive) | 34.7 µM (inactive) | 26.5 µM (inactive) | > 100 µM (inactive) | 50.9 µM (inactive) | > 100 µM (inactive) | 16.6 µM (inactive) | 43.7 µM (inactive) | 39.8 µM (inactive) | 
CCOC(=O)/C(=N/Nc1ccc(Cl)cc1)N1C(=S)N(C)N=C(C)C=C1S | 61.8 µM (inactive) | > 100 µM (inactive) | 23.7 µM (inactive) | > 100 µM (inactive) | > 100 µM (inactive) | > 100 µM (inactive) | > 100 µM (inactive) | 81.3 µM (inactive) | 42.9 µM (inactive) |  | > 100 µM (inactive) | 29.9 µM (inactive) |  | > 100 µM (inactive) | 34.6 µM (inactive) | > 100 µM (inactive) | > 100 µM (inactive) | > 100 µM (inactive) | > 100 µM (inactive) | 
CN(C)CCCCN1CCc2c(n(C)c3ccccc23)C1=O | 50.6 µM (inactive) | 36.6 µM (inactive) | > 80.4 µM (inactive) |  |  | 44.4 µM (inactive) | 57.9 µM (inactive) | > 81.3 µM (inactive) | > 67.8 µM (inactive) | 33.5 µM (inactive) | 63.2 µM (inactive) | 31.3 µM (inactive) | 45.4 µM (inactive) | 27.4 µM (inactive) | 17.3 µM (inactive) |  | 51.4 µM (inactive) |  |  | 19.4 µM (inactive)
Cc1ccc(-c2c(C#N)c(-c3ccc([N+](=O)[O-])cc3)c(C#N)c(=O)n2NS(=O)(=O)c2ccccc2)cc1 | 36.6 µM (inactive) | 19.2 µM (inactive) | 31.6 µM (inactive) |  | 28.1 µM (inactive) | 31.6 µM (inactive) | 30.9 µM (inactive) |  | 26.1 µM (inactive) | 45.3 µM (inactive) | 19 µM (inactive) | 49 µM (inactive) | 10.4 µM (inactive) | 38 µM (inactive) | 20.9 µM (inactive) |  |  |  | 25.5 µM (inactive) | 25.9 µM (inactive)
